Assay results published in PubChem BioAssay (NCI).
Several values for one entry are separate records, joined by “and”; a condition that tells them apart may be missing. Equal values may be shown once.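 Dose response: 5 concentrations. Exposure: 48 h. Format: 96-well plates. Endpoint: linear interpolation; highest concentration if not reached. GI50: concentration for 50% inhibition of growth. TGI: concentration producing complete growth inhibition.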

Experiments:
Assay in all cases: inhibition of tumour cell growth, NCI panel, 48 h
786-0 renal = system: 786-0 renal
A498 renal = system: A498 renal
A549 NSCLC = system: A549 NSCLC
ACHN renal = system: ACHN renal
BT-549 breast = system: BT-549 breast
CAKI-1 renal = system: CAKI-1 renal
CCRF-CEM leukemia = system: CCRF-CEM leukemia
COLO 205 colon = system: COLO 205 colon
DU-145 prostate = system: DU-145 prostate
EKVX NSCLC = system: EKVX NSCLC
HCC-2998 colon = system: HCC-2998 colon
HCT-116 colon = system: HCT-116 colon
HCT-15 colon = system: HCT-15 colon
HL-60(TB) leukemia = system: HL-60(TB) leukemia
HOP-62 NSCLC = system: HOP-62 NSCLC
HOP-92 NSCLC = system: HOP-92 NSCLC
HS 578T breast = system: HS 578T breast
HT29 colon = system: HT29 colon
IGROV1 ovarian = system: IGROV1 ovarian
K-562 leukemia = system: K-562 leukemia
KM12 colon = system: KM12 colon
LOX IMVI melanoma = system: LOX IMVI melanoma
M14 melanoma = system: M14 melanoma
MALME-3M melanoma = system: MALME-3M melanoma
MCF7 breast = system: MCF7 breast
MDA-MB-231 breast = system: MDA-MB-231 breast
MDA-MB-435 = system: MDA-MB-435
MOLT-4 leukemia = system: MOLT-4 leukemia
NCI-H226 lung = system: NCI-H226 lung
NCI-H23 lung = system: NCI-H23 lung
NCI-H460 lung = system: NCI-H460 lung
NCI-H522 lung = system: NCI-H522 lung
NCI/ADR-RES ovarian = system: NCI/ADR-RES ovarian
OVCAR-3 ovarian = system: OVCAR-3 ovarian
OVCAR-4 ovarian = system: OVCAR-4 ovarian
OVCAR-5 ovarian = system: OVCAR-5 ovarian
OVCAR-8 ovarian = system: OVCAR-8 ovarian
PC-3 prostate = system: PC-3 prostate
RPMI-8226 leukemia = system: RPMI-8226 leukemia
RXF 393 renal = system: RXF 393 renal
SF-268 CNS = system: SF-268 CNS
SF-295 CNS = system: SF-295 CNS
SF-539 CNS = system: SF-539 CNS
SK-MEL-2 melanoma = system: SK-MEL-2 melanoma
SK-MEL-28 melanoma = system: SK-MEL-28 melanoma
SK-MEL-5 melanoma = system: SK-MEL-5 melanoma
SK-OV-3 ovarian = system: SK-OV-3 ovarian
SN12C renal = system: SN12C renal
SNB-19 CNS = system: SNB-19 CNS
SNB-75 CNS = system: SNB-75 CNS
SR leukemia = system: SR leukemia
SW-620 colon = system: SW-620 colon
TK-10 renal = system: TK-10 renal
U251 CNS = system: U251 CNS
UACC-257 melanoma = system: UACC-257 melanoma
UACC-62 melanoma = system: UACC-62 melanoma
UO-31 renal = system: UO-31 renal

SMILES: COc1cc(C(=O)c2cnc(-c3cccc4[nH]ccc34)[nH]2)cc(OC)c1OC
- TGI (786-0 renal): > 100000 nM
- GI50 (A498 renal): 49 nM and < 10 nM
- TGI (A549 NSCLC): > 100000 nM
- TGI (ACHN renal): 33800 nM
- TGI (BT-549 breast): 22000 nM
- GI50 (CAKI-1 renal): < 10 nM
- TGI (CAKI-1 renal): > 100000 nM
- TGI (CCRF-CEM leukemia): > 100000 nM
- TGI (COLO 205 colon): < 10 nM
- GI50 (DU-145 prostate): 99.6 nM and < 10 nM
- TGI (DU-145 prostate): > 100000 nM
- TGI (EKVX NSCLC): > 100000 nM
- TGI (HCC-2998 colon): 59300 nM
- GI50 (HCT-116 colon): 67.3 nM and < 10 nM
- TGI (HCT-116 colon): > 100000 nM
- GI50 (HCT-15 colon): 91.5 nM and < 10 nM
- TGI (HCT-15 colon): > 100000 nM
- GI50 (HL-60(TB) leukemia): < 10 nM
- TGI (HL-60(TB) leukemia): < 10 nM
- GI50 (HOP-62 NSCLC): < 10 nM
- TGI (HOP-62 NSCLC): 20000 nM
- GI50 (HOP-92 NSCLC): 1500 nM
- TGI (HOP-92 NSCLC): 48100 nM
- TGI (HS 578T breast): > 100000 nM
- GI50 (HT29 colon): 49.3 nM and < 10 nM
- TGI (HT29 colon): < 10 nM
- GI50 (IGROV1 ovarian): 96.6 nM and < 10 nM
- TGI (IGROV1 ovarian): > 100000 nM
- GI50 (K-562 leukemia): 38.6 nM and < 10 nM
- TGI (K-562 leukemia): 42300 nM
- GI50 (KM12 colon): 40 nM and < 10 nM
- TGI (KM12 colon): 24000 nM
- TGI (LOX IMVI melanoma): > 100000 nM
- GI50 (M14 melanoma): 50.5 nM and < 10 nM
- GI50 (MALME-3M melanoma): 19600 nM
- TGI (MALME-3M melanoma): 83000 nM
- GI50 (MCF7 breast): 59 nM and < 10 nM
- TGI (MCF7 breast): > 100000 nM
- TGI (MDA-MB-231 breast): 20700 nM
- GI50 (MDA-MB-435): 28.2 nM
- TGI (MOLT-4 leukemia): > 100000 nM
- GI50 (NCI-H226 lung): 169 nM
- TGI (NCI-H23 lung): > 100000 nM
- GI50 (NCI-H460 lung): 43.4 nM and < 10 nM
- TGI (NCI-H460 lung): > 100000 nM
- GI50 (NCI-H522 lung): 36.9 nM
- GI50 (NCI/ADR-RES ovarian): 72.9 nM and < 10 nM
- TGI (NCI/ADR-RES ovarian): > 100000 nM
- GI50 (OVCAR-3 ovarian): 36.6 nM and < 10 nM
- GI50 (OVCAR-4 ovarian): < 10 nM
- TGI (OVCAR-4 ovarian): > 100000 nM
- TGI (OVCAR-5 ovarian): > 100000 nM
- TGI (OVCAR-8 ovarian): 48200 nM
- GI50 (PC-3 prostate): 45.7 nM and < 10 nM
- TGI (PC-3 prostate): > 100000 nM
- TGI (RPMI-8226 leukemia): 24300 nM
- GI50 (RXF 393 renal): 113 nM
- TGI (SF-268 CNS): > 100000 nM
- GI50 (SF-295 CNS): < 10 nM
- TGI (SF-295 CNS): > 100000 nM
- GI50 (SF-539 CNS): 27.8 nM and < 10 nM
- GI50 (SK-MEL-2 melanoma): < 10 nM
- TGI (SK-MEL-2 melanoma): 36100 nM
- GI50 (SK-MEL-28 melanoma): < 10 nM
- TGI (SK-MEL-28 melanoma): > 100000 nM
- GI50 (SK-MEL-5 melanoma): 46.2 nM and < 10 nM
- TGI (SK-MEL-5 melanoma): 431 nM and 275 nM
- GI50 (SK-OV-3 ovarian): 54.2 nM and < 10 nM
- TGI (SK-OV-3 ovarian): < 10 nM
- TGI (SN12C renal): > 100000 nM
- GI50 (SNB-19 CNS): 46.5 nM and < 10 nM
- TGI (SNB-19 CNS): > 100000 nM
- GI50 (SNB-75 CNS): 29.5 nM and < 10 nM
- TGI (SNB-75 CNS): > 100000 nM
- GI50 (SR leukemia): < 10 nM
- TGI (SR leukemia): > 100000 nM
- TGI (SW-620 colon): > 100000 nM
- GI50 (TK-10 renal): < 10 nM
- TGI (TK-10 renal): 66600 nM
- GI50 (U251 CNS): 60.3 nM and < 10 nM
- TGI (U251 CNS): 40000 nM
- GI50 (UACC-257 melanoma): 11900 nM
- TGI (UACC-257 melanoma): > 100000 nM
- GI50 (UACC-62 melanoma): 50.9 nM and < 10 nM
- TGI (UACC-62 melanoma): 93600 nM
- GI50 (UO-31 renal): < 10 nM
- TGI (UO-31 renal): 21000 nM

SMILES: CCCCCCCc1n(Cc2ccc3ccccc3c2)c2ccccc2[n+]1Cc1ccc2ccccc2c1
- GI50 (HL-60(TB) leukemia): 186 nM
- TGI (HL-60(TB) leukemia): 569 nM
- GI50 (HOP-92 NSCLC): 163 nM
- TGI (HOP-92 NSCLC): 670 nM
- GI50 (HS 578T breast): 1200 nM
- TGI (HS 578T breast): 3670 nM
- GI50 (SF-268 CNS): 345 nM
- TGI (SF-268 CNS): 1490 nM
- GI50 (SK-OV-3 ovarian): 870 nM
- TGI (SK-OV-3 ovarian): 2280 nM
